In patent publication US20200278355A1, “CONJUGATED PROTEINS AND USES THEREOF” (THE SCRIPPS RESEARCH INSTITUTE, priority 2017, published 2020):

Target: T1, HA-NR0B1-C274V binding to FLAG-SNW1 (Homo sapiens, UniProt P51843, C274V)
T1 construct: expressed in transfected cells; host or cells: HEK293T (pRK5-based plasmids)
Test: Modified in vitro binding assay: HA-NR0B1-C274V from compound-treated HEK293T cells binding to FLAG-SNW1
Format: cell-based
Conditions: HEK293T cells expressing HA-NR0B1-C274V treated with compound, lysate binding to FLAG-SNW1
Method: FIG. 5A-FIG. 5G show covalent ligand targeting C274 disrupts NR0B1 protein complexes. […] Percentage of NR0B1 bound to SNW1 was normalized to vehicle (DMSO). A hit compound BPK-26 is marked in red. […] HEK293T cells expressing the indicated proteins were treated with BPK-29 or vehicle (3 h) prior to treatment with BPK-29yne (30 min). Immunoprecipiated proteins were analyzed by in-gel fluorescence-scanning and immunoblotting. […] HEK293T cells expressing HA-NR0B1-WT or HA-NR0B1-C274V proteins were treated with DMSO or BPK-29, after which lysates were generated and evaluated for binding to FLAG-SNW1, as shown in (B).
FIG. 11A-FIG. 11F illustrate a covalent ligand targeting Cys274 disrupts NR0B1 protein complexes. […] See also FIG. 5C. […] Top: Structures of screening hit BPK-28 and synthesized derivatives. […] FLAG-immunoprecipitates were prepared from each lysate and subjected to proteolytic digestion, whereupon tryptic peptides harboring C274 were analyzed by LC-MS/MS. […] Immunoprecipitates were analyzed by in-gel fluorescence-scanning to assess BPK-29yne labeling or by immunoblot for FLAG-NR0B1. […] In a modified in vitro binding assay shown in FIG. 5B, HEK293T cells expressing HA-NR0B1-WT or an HA-NR0B1-C274V mutant were treated with DMSO or BPK-26 (20 μM, 3 h), after which lysates were and interaction with FLAG-SNW1 assessed. […]

T1 sequence (P51843 whole entry C274V): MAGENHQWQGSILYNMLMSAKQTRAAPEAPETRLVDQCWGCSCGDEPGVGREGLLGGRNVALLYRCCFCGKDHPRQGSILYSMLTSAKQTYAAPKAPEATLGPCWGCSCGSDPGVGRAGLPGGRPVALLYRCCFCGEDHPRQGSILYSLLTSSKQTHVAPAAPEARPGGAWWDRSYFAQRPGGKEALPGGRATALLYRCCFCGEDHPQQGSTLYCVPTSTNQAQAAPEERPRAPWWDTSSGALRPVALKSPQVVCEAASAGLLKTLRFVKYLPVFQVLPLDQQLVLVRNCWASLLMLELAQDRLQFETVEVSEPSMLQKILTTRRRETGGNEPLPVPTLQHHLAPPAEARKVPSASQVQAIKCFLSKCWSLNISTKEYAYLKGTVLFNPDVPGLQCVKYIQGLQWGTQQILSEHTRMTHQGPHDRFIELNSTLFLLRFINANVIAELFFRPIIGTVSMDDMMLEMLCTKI

SMILES | sensitivity of the C274V-NR0B1 interaction with SNW1 to ligand
O=C(CCl)N(Cc1cccc(Cl)c1F)c1ccc(Cl)nc1 [BPK-26, 2-chloro-N-(3-chloro-2-fluorobenzyl)-N-(6-chloropyridin-3-yl)acetamide] | not sensitive
O=C(c1ccc(N2CCOCC2)cc1)N1CCCC(N(Cc2ccccc2)C(=O)CCl)CC1 (centres unmarked) [BPK-29, N-benzyl-2-chloro-N-(1-(4-morpholinobenzoyl)azepan-4-yl)acetamide] | not sensitive
